≈ marks a conversion by molar mass, not a printed value.
Test: Apparent permeability from basolateral to apical side in MDCK-MDR1 cells
Format: ADME, cell-based, Canis lupus familiaris
Details: dog

Compound	Papp B→A [×10⁻⁶ cm/s]
CN(c1nnc(-c2cc(F)c(-c3cn[nH]c3)cc2Cl)s1)C1CC(C)(C)NC(C)(C)C1	23
CN(c1nnc(-c2ccc(-c3cn[nH]c3)cc2Cl)s1)C1CC(C)(C)NC(C)(C)C1	12
CN(c1nnc(-c2ccc(-c3cn[nH]c3)cc2F)s1)C1CC(C)(C)NC(C)(C)C1	15
CN(c1nnc(-c2cc(F)c(-c3cn[nH]c3)cc2F)s1)C1CC(C)(C)NC(C)(C)C1	16

Test: Modulation of SMN2 splicing in myoblast cell line derived from the SMNdelta7 mouse model assessed as increase in SMN level measured as fold activation treated for 24 hrs by ELISA
Format: functional, Primary myoblast
Details: not given

Compound	EC50 [µM]
CN(c1nnc(-c2ccc(C#N)cc2O)s1)C1CC(C)(C)NC(C)(C)C1	8.8
CN(c1nnc(-c2ccc(-c3ccn(C)c(=O)c3)cc2OC(F)(F)F)s1)C1CC(C)(C)NC(C)(C)C1	0.9
CN(c1nnc(-c2ccc(-c3cn[nH]c3)cc2O)s1)C1CC(C)(C)NC(C)(C)C1	0.4
CN(c1nnc(-c2cc(F)c(-c3cn[nH]c3)cc2Cl)s1)C1CC(C)(C)NC(C)(C)C1	0.048
CN(c1nnc(-c2ccc(-c3cn[nH]c3)cc2Cl)s1)C1CC(C)(C)NC(C)(C)C1	0.034
CN(c1nnc(-c2ccc(-c3cn[nH]c3)cc2F)s1)C1CC(C)(C)NC(C)(C)C1	0.043
CN(c1nnc(-c2cc(F)c(-c3cn[nH]c3)cc2F)s1)C1CC(C)(C)NC(C)(C)C1	0.02

Test: Drug uptake in Sprague-Dawley rat brain at 3 mg/kg, po measured after 7 hrs by HPLC-MS/MS analysis
Format: ADME, organism-based
Details: read-out: Drug uptake

Compound	concentration at 7 h [nM]
CN(c1nnc(-c2cc(F)c(-c3cn[nH]c3)cc2Cl)s1)C1CC(C)(C)NC(C)(C)C1	185
CN(c1nnc(-c2ccc(-c3cn[nH]c3)cc2Cl)s1)C1CC(C)(C)NC(C)(C)C1	240
CN(c1nnc(-c2ccc(-c3cn[nH]c3)cc2F)s1)C1CC(C)(C)NC(C)(C)C1	66
CN(c1nnc(-c2cc(F)c(-c3cn[nH]c3)cc2F)s1)C1CC(C)(C)NC(C)(C)C1	141

Test: Intrinsic clearance in rat liver microsomes
Format: ADME, Microsome
Details: read-out: CLH

Compound	microsomal CLint [µL/min/mg]
CN(c1nnc(-c2cc(F)c(-c3cn[nH]c3)cc2Cl)s1)C1CC(C)(C)NC(C)(C)C1	54
CN(c1nnc(-c2ccc(-c3cn[nH]c3)cc2Cl)s1)C1CC(C)(C)NC(C)(C)C1	24
CN(c1nnc(-c2ccc(-c3cn[nH]c3)cc2F)s1)C1CC(C)(C)NC(C)(C)C1	59
CN(c1nnc(-c2cc(F)c(-c3cn[nH]c3)cc2F)s1)C1CC(C)(C)NC(C)(C)C1	48

Test: Apparent permeability from apical to basolateral side in MDCK-MDR1 cells
Format: ADME, cell-based, Canis lupus familiaris
Details: dog

Compound	Papp A→B [×10⁻⁶ cm/s]
CN(c1nnc(-c2cc(F)c(-c3cn[nH]c3)cc2Cl)s1)C1CC(C)(C)NC(C)(C)C1	4
CN(c1nnc(-c2ccc(-c3cn[nH]c3)cc2Cl)s1)C1CC(C)(C)NC(C)(C)C1	3
CN(c1nnc(-c2ccc(-c3cn[nH]c3)cc2F)s1)C1CC(C)(C)NC(C)(C)C1	4
CN(c1nnc(-c2cc(F)c(-c3cn[nH]c3)cc2F)s1)C1CC(C)(C)NC(C)(C)C1	3

Test: Solubility of the compound at pH 6.8 by high-throughput miniaturized shake flask solubility assay
Format: physicochemical
Details: buffer

Compound	solubility thermodynamic [µM]
CN(c1nnc(-c2cc(F)c(-c3cn[nH]c3)cc2Cl)s1)C1CC(C)(C)NC(C)(C)C1	34 (≈ 15.3 µg/mL)
CN(c1nnc(-c2ccc(-c3cn[nH]c3)cc2Cl)s1)C1CC(C)(C)NC(C)(C)C1	44000 (≈ 19000 µg/mL)
CN(c1nnc(-c2ccc(-c3cn[nH]c3)cc2F)s1)C1CC(C)(C)NC(C)(C)C1	> 1000
CN(c1nnc(-c2cc(F)c(-c3cn[nH]c3)cc2F)s1)C1CC(C)(C)NC(C)(C)C1	122 (≈ 52.8 µg/mL)

Test: Modulation of SMN2 splicing activity in myoblast cell line derived from the SMNdelta7 mouse model assessed as increase in SMN level treated for 24 hrs by ELISA relative to control
Format: functional, Primary myoblast
Details: not given

Compound	fold change (FC)
CN(c1nnc(-c2ccc(C#N)cc2O)s1)C1CC(C)(C)NC(C)(C)C1	1.9
CN(c1nnc(-c2ccc(-c3ccn(C)c(=O)c3)cc2OC(F)(F)F)s1)C1CC(C)(C)NC(C)(C)C1	2.2
CN(c1nnc(-c2ccc(-c3cn[nH]c3)cc2O)s1)C1CC(C)(C)NC(C)(C)C1	2.5
CN(c1nnc(-c2cc(F)c(-c3cn[nH]c3)cc2Cl)s1)C1CC(C)(C)NC(C)(C)C1	3.2
CN(c1nnc(-c2ccc(-c3cn[nH]c3)cc2Cl)s1)C1CC(C)(C)NC(C)(C)C1	2.5
CN(c1nnc(-c2ccc(-c3cn[nH]c3)cc2F)s1)C1CC(C)(C)NC(C)(C)C1	3.1
CN(c1nnc(-c2cc(F)c(-c3cn[nH]c3)cc2F)s1)C1CC(C)(C)NC(C)(C)C1	3.1

Reference: ChEMBL document CHEMBL4808177, “Use of Intramolecular 1,5-Sulfur-Oxygen and 1,5-Sulfur-Halogen Interactions in the Design of N-Methyl-5-aryl-N-(2,2,6,6-tetramethylpiperidin-4-yl)-1,3,4-thiadiazol-2-amine SMN2 Splicing Modulators” (J Med Chem, 2021)
